The source of these data is ChEMBL document CHEMBL5034027, “Synthesis and evaluation of stereoisomers of methylated catechin and epigallocatechin derivatives on modulating P-glycoprotein-mediated multidrug resistance in cancers” (Eur J Med Chem, 2021).

pEC50, pIC50: −log10 of the molar value. A value given as a limit tells only on which side of the number the result lay.

A short description of series [1]: Reversal of P-glycoprotein mediated drug resistance in human LCC6MDR cells assessed as reversal of paclitaxel resistance measured after 5 days by Cell Titer-Glo luminescence assay. It counts as cell-based. The conditions noted are these: 120 h. (In general: ATP-based viability assays read luminescence as a measure of living cells.)
The next series deals with P-gp. Put plainly: Selectivity index, ratio of IC50 for cytotoxicity against mouse L929 cells to EC50 for inhibition of P-gp in human LCC6MDR cells assessed as reversal of paclitaxel resistance. The conditions noted are these: L929 cells (cytotoxicity IC50) and LCC6MDR cells (P-gp EC50), probe paclitaxel, read-out: Selectivity Index. It counts as toxicity, cell-based.
A further series concerns L929. Put plainly: Cytotoxicity against mouse L929 cells assessed as reduction in cell viability incubated for 72 hrs by MTS assay. It counts as cell-based. The conditions noted are these: L929, 72 h. (In general: Formazan colour is commonly taken as a measure of viable cells.)
Series [2] has as its target T1, ATP-dependent translocase ABCB1 (Homo sapiens, UniProt P08183). The series can be described thus: Inhibition of P-gp in human LCC6MDR cells assessed as intracellular DOX retention at 2 uM incubated for 60 mins by flow cytometry analysis relative to control. It counts as cell-based. More on the design: scale not given: the % may be the effect or the level left. Conditions: 1 h. On the technique in general: A flow cytometer gives signals particle by particle.

The target in series [3] is T1, ATP-dependent translocase ABCB1. The series can be described thus: Inhibition of P-gp in human LCC6MDR cells assessed as intracellular DOX retention at 2 uM incubated for 90 mins by flow cytometry analysis relative to control. Type of series: cell-based. Set-up: scale not given: the % may be the effect or the level left.
Series [4] shares this target. Put plainly: Inhibition of P-gp in human LCC6MDR cells assessed as intracellular DOX retention at 2 uM incubated for 120 mins by flow cytometry analysis relative to control. Type of series: cell-based. More on the design: scale not given: the % may be the effect or the level left. Conditions: 2 h.
A short description of series [5]: Reversal of P-glycoprotein mediated drug resistance in human LCC6MDR cells assessed as reversal of Dox resistance measured after 5 days by Cell Titer-Glo luminescence assay. Conditions: 120 h.

T1 sequence (P08183 whole entry): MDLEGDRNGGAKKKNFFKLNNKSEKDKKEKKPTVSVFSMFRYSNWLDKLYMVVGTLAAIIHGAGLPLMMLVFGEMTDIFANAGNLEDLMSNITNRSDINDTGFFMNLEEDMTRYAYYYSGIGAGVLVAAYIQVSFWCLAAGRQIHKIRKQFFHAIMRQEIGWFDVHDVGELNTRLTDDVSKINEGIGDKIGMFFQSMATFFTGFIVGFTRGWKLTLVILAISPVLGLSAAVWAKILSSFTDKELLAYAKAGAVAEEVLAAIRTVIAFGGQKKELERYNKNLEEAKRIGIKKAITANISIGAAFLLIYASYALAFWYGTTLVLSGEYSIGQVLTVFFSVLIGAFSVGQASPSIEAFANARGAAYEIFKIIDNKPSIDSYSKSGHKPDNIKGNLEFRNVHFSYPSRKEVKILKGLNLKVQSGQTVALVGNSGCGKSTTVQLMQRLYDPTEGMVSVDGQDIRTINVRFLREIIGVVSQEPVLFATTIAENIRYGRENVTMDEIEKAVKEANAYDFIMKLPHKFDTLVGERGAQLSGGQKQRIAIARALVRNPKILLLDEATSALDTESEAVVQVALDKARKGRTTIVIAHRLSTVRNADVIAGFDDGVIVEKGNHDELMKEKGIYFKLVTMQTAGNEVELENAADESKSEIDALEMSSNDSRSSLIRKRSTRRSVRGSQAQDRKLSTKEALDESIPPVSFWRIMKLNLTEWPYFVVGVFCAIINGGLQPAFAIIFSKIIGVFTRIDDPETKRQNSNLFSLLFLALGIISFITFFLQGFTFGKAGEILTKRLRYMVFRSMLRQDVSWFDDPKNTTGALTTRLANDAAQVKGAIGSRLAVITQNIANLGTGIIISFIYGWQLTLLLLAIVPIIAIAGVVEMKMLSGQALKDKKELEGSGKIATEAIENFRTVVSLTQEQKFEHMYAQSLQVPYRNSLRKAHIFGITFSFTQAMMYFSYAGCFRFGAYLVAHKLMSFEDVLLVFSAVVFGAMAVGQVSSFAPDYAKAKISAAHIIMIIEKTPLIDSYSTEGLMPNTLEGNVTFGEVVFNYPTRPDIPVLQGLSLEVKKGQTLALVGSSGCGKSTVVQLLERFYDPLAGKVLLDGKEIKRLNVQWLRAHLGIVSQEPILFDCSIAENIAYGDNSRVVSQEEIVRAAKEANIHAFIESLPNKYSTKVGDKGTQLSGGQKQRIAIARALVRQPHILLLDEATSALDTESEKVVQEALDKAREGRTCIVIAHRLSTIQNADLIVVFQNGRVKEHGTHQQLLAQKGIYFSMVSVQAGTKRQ

By pEC50 is commonly meant the EC50 on a negative log10 scale, so that one unit is a factor of ten. Take `COc1cc(OC)c2c(c1)O[C@H](c1cc(OC)c(OC)c(OC)c1)[C@H](OC(=O)c1ccc(F)c(NC(=O)c3ccc(OC)c(OC)c3)c1)C2`: the pEC50 in series [1] was 6.80.

As for `COc1cc(OC)c2c(c1)O[C@H](c1cc(OC)c(OC)c(OC)c1)[C@H](OC(=O)c1ccc(F)c(NC(=O)c3cc(OC)c(OC)c(OC)c3)c1)C2`, the pEC50 in series [1] is 6.67.

Take `COc1cc(OC)c2c(c1)O[C@H](c1cc(OC)c(OC)c(OC)c1)[C@@H](OC(=O)c1ccc(F)c(NC(=O)c3ccc(OC)c(OC)c3)c1)C2`: in series [1], the pEC50 is 6.77. Regarding `COc1cc(OC)c2c(c1)O[C@H](c1cc(OC)c(OC)c(OC)c1)[C@@H](OC(=O)c1ccc(F)c(NC(=O)c3cc(OC)c(OC)c(OC)c3)c1)C2`, the pEC50 in series [1] is 6.85. For orientation: pIC50 means −log10 of the IC50, conventionally taken in molar units. On to `COc1cc(OC)c2c(c1)O[C@H](c1ccc(OC)c(OC)c1)[C@@H](OC(=O)c1ccc(F)c(NC(=O)/C=C/c3cc(OC)c(OC)c(OC)c3)c1)C2`, for which, in series [1], the pEC50 was 6.75. Also, the selectivity ratio in the series on P-gp was over 563. In the series with L929, the pIC50 is under 4.00. As for `COc1cc(OC)c2c(c1)O[C@H](c1ccc(OC)c(OC)c1)[C@@H](OC(=O)c1ccc(F)c(NC(=O)c3cc(OC)c(OC)c(OC)c3)c1)C2`, the results for the Activity in series [2], in series [3] and in series [4] were 87%, 89% and 90%, respectively. On to `COc1cc(OC)c2c(c1)O[C@@H](c1cc(OC)c(OC)c(OC)c1)[C@H](OC(=O)c1ccc(F)c(NC(=O)c3cc(OC)c(OC)c(OC)c3)c1)C2`, for which, in series [1], the pEC50 is 6.87. In the series with P-gp, the selectivity ratio is over 741. Also, the negative logarithm of the IC50 (pIC50) in the series on L929 was under 4.00. `COc1ccc(CCN(C)CCCC(C#N)(c2ccc(OC)c(OC)c2)C(C)C)cc1OC` (stereo not given): the pEC50 in series [5] is 6.59.

As for `O=C(O[C@@H]1Cc2c(O)cc(O)cc2O[C@@H]1c1cc(O)c(O)c(O)c1)c1cc(O)c(O)c(O)c1` [EPIGALOCATECHIN GALLATE], the pEC50 in series [1] was under 6.00.
